Bridge positions count the residues as written; N and C are the ends. Square brackets hold non-standard residues; d marks the D form. Peptide text beside a SMILES is read from it. Hyp = O=C(O)[C@@H]1C[C@@H](O)CN1; Cit = NC(=O)NCCC[C@H](N)C(=O)O

What is called EC50 is the concentration at which the effect is half-maximal.

Data set [1] can be described thus: Physical stability of peptide analogues (Thioflavin T fibrillation). It is filed as physicochemical. As to conditions: maximum ThT signal normalized between hAMY maximum and buffer background; 40° C., shaking, four days; pH 7 per table title. The essentials:
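Maximum ThT emission at 480 nm, after LOESS smoothing, is given as percent of the span from buffer background to hAMY. Conditions: 50 mM buffer at pH 4 or 7, 4 μM dye, 40 °C, repeated shaking, readings every 10 min for four days.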

Another data set concerns the target T1, hAMY3 receptor (Homo sapiens, UniProt O60896+P30988).
T1 sequence (P30988 25-474): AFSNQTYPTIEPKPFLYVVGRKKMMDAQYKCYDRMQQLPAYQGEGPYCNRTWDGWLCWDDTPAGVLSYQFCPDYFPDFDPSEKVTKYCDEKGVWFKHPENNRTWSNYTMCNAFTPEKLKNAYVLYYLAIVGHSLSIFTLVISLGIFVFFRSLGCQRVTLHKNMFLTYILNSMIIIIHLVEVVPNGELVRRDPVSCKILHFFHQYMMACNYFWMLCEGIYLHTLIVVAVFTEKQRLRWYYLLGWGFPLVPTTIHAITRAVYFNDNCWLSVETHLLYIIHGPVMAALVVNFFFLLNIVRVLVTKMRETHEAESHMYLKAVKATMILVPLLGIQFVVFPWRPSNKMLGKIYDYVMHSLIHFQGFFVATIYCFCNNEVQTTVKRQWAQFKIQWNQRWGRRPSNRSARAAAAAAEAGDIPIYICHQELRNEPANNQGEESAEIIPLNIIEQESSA
T1 sequence (O60896 24-148 partner): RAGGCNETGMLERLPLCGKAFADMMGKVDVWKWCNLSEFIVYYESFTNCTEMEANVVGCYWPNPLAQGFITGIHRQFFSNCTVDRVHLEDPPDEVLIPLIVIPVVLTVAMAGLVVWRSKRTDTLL
As to the kind of experiment: cAMP assay for in vitro receptor activation, hAMY3-R. It is filed as cell-based. To be noted: cAMP assay, hAMY3 receptor; read-out: hAMY3R EC50. Put shortly:
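Accumulated cAMP was detected by time-resolved FRET one hour after reagent addition. Beforehand, hAMY3-R-overexpressing monoclonal cells (2000/well, DPBS, 0.05% casein, 0.5 mM IBMX) received graded doses of compound for 30 min at room temperature; human amylin served as positive control.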
In general terms: Cyclic AMP is a second messenger, typically raised through Gs and lowered through Gi signalling.

A further data set concerns the target hAM1 receptor (Homo sapiens, UniProt O60895+Q16602). As to the kind of experiment: cAMP assay for in vitro receptor activation, hAM1-R. As to conditions: cAMP assay, hAM1 receptor; read-out: hAM1R EC50. In kind it is cell-based. The essentials: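 A subcloned monoclonal line stably expressing hAM1 receptor is thawed and plated at 8000 cells/well. The assay buffer is DPBS with 0.05% casein and 0.5 mM IBMX, and receptor activation is followed by cAMP levels.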

Sequence of hAM1 receptor (Q16602 23-461): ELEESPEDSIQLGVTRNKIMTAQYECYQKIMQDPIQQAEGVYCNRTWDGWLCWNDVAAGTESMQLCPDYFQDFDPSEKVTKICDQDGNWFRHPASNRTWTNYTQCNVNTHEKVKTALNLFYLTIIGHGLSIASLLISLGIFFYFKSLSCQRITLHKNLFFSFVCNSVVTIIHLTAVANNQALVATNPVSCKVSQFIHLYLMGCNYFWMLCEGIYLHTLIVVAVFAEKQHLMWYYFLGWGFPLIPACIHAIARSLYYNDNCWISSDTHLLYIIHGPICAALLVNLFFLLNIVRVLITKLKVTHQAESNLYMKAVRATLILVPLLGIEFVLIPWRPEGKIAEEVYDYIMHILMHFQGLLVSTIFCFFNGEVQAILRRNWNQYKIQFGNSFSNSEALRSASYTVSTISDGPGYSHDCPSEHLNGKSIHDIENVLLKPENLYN
Sequence of hAM1 receptor (O60895 43-175 partner): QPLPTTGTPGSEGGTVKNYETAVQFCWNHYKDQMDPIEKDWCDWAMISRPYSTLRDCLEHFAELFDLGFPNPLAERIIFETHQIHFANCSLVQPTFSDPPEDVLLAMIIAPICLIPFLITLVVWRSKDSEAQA

For the compound `CC[C@H](C)[C@H](NC(=O)[C@H](CCC(N)=O)NC(=O)[C@H](Cc1c[nH]cn1)NC(=O)[C@H](C)NC(=O)[C@H](CC(C)C)NC(=O)[C@H](CCCNC(N)=O)NC(=O)[C@H](CCC(N)=O)NC(=O)[C@@H](NC(=O)[C@@H](NC(=O)[C@@H]1CSSC[C@H](NC(=O)[C@@H](N)CCCCN)C(=O)N[C@@H](CC(N)=O)C(=O)N[C@@H]([C@@H](C)O)C(=O)N[C@@H](C)C(=O)N[C@@H]([C@@H](C)O)C(=O)N1)[C@@H](C)O)C(C)C)C(=O)N[C@@H](Cc1ccc(O)cc1)C(=O)N[C@@H](CCC(N)=O)C(=O)N[C@@H](Cc1ccccc1)C(=O)N[C@H](C(=O)N[C@@H](CCCCN)C(=O)N[C@@H](CC(=O)O)C(=O)N[C@@H](CCCCN)C(=O)N[C@@H](CC(=O)O)C(=O)N[C@@H](CC(N)=O)C(=O)N[C@H](C(=O)N[C@@H](C)C(=O)N1CCC[C@H]1C(=O)N1CCC[C@H]1C(=O)N[C@H](C(=O)N[C@@H](CC(N)=O)C(=O)N[C@H](C(=O)NCC(=O)N[C@@H](CO)C(=O)N[C@@H](CC(N)=O)C(=O)NCC(=O)N1C[C@H](O)C[C@H]1C(N)=O)C(C)C)[C@@H](C)O)C(C)C)[C@@H](C)O` [compound 253] (H-KCNTATCTVQ[Cit]LAHQIYQFTKDKDNVAPPTNVGSNG[Hyp]-NH2; disulfide 2-7; N-terminus assumed), the “Max ThT signal (%)” value in data set [1] is reported as 9.600%. Besides, the values for the EC50 on hAMY3 receptor and on hAM1 receptor were 0.004 nM and more than 5000 nM, respectively.
For `CC[C@H](C)[C@H](NC(=O)[C@H](CCC(N)=O)NC(=O)[C@H](Cc1c[nH]cn1)NC(=O)[C@H](C)NC(=O)[C@H](CC(C)C)NC(=O)[C@H](Cc1c[nH]c2ccccc12)NC(=O)[C@H](CCC(N)=O)NC(=O)[C@@H](NC(=O)[C@@H](NC(=O)[C@@H]1CSSC[C@H](NC(=O)[C@@H](N)CCCCN)C(=O)N[C@@H](CC(N)=O)C(=O)N[C@@H]([C@@H](C)O)C(=O)N[C@@H](C)C(=O)N[C@@H]([C@@H](C)O)C(=O)N1)[C@@H](C)O)C(C)C)C(=O)N[C@@H](Cc1ccc(O)cc1)C(=O)N[C@@H](CCC(N)=O)C(=O)N[C@@H](Cc1ccccc1)C(=O)N[C@H](C(=O)N[C@@H](CC(=O)O)C(=O)N[C@@H](C)C(=O)N[C@@H](CC(=O)O)C(=O)N[C@@H](CCCCN)C(=O)N[C@@H](CC(=O)O)C(=O)N[C@@H](CC(N)=O)C(=O)N[C@H](C(=O)N[C@@H](C)C(=O)N1CCC[C@H]1C(=O)N1CCC[C@H]1C(=O)N[C@H](C(=O)N[C@@H](CC(N)=O)C(=O)N[C@H](C(=O)NCC(=O)N[C@@H](CO)C(=O)N[C@@H](CC(N)=O)C(=O)NCC(=O)N1C[C@H](O)C[C@H]1C(N)=O)C(C)C)[C@@H](C)O)C(C)C)[C@@H](C)O` [compound 328] (H-KCNTATCTVQWLAHQIYQFTDADKDNVAPPTNVGSNG[Hyp]-NH2; disulfide 2-7; N-terminus assumed), in data set [1], the “Max ThT signal (%)” value is 33.250%. The EC50 at hAMY3 receptor was 0.01 nM; on hAM1 receptor, more than 5000 nM.
For `CC[C@H](C)[C@H](NC(=O)[C@H](CCC(N)=O)NC(=O)[C@H](Cc1c[nH]cn1)NC(=O)[C@H](C)NC(=O)[C@H](CC(C)C)NC(=O)[C@H](CCCNC(N)=O)NC(=O)[C@H](CCC(N)=O)NC(=O)[C@@H](NC(=O)[C@@H](NC(=O)[C@@H]1CSSC[C@H](NC(=O)[C@@H](N)CCCCN)C(=O)N[C@@H](CC(N)=O)C(=O)N[C@@H]([C@@H](C)O)C(=O)N[C@@H](C)C(=O)N[C@@H]([C@@H](C)O)C(=O)N1)[C@@H](C)O)C(C)C)C(=O)N[C@@H](Cc1ccc(O)cc1)C(=O)N[C@@H](CCC(N)=O)C(=O)N[C@@H](Cc1ccccc1)C(=O)N[C@@H](C)C(=O)N[C@@H](CC(=O)O)C(=O)N[C@@H](CCCCN)C(=O)N[C@@H](CC(=O)O)C(=O)N[C@@H](CCCCN)C(=O)N[C@@H](CC(=O)O)C(=O)N[C@@H](CC(N)=O)C(=O)N[C@H](C(=O)N[C@@H](C)C(=O)N1CCC[C@H]1C(=O)N1CCC[C@H]1C(=O)N[C@H](C(=O)N[C@@H](CC(N)=O)C(=O)N[C@H](C(=O)NCC(=O)N[C@@H](CO)C(=O)N[C@@H](CC(N)=O)C(=O)NCC(=O)N1C[C@H](O)C[C@H]1C(N)=O)C(C)C)[C@@H](C)O)C(C)C` [compound 249] (H-KCNTATCTVQ[Cit]LAHQIYQFADKDKDNVAPPTNVGSNG[Hyp]-NH2; disulfide 2-7; N-terminus assumed), in data set [1], the “Max ThT signal (%)” value is listed as 15.600%. Further, the EC50 was 0.006 nM on hAMY3 receptor and more than 5000 nM at hAM1 receptor.
Take `CC[C@H](C)[C@H](NC(=O)[C@H](CCC(N)=O)NC(=O)[C@H](Cc1c[nH]cn1)NC(=O)[C@H](C)NC(=O)[C@H](CC(C)C)NC(=O)[C@H](Cc1c[nH]c2ccccc12)NC(=O)[C@H](CCC(N)=O)NC(=O)[C@@H](NC(=O)[C@@H](NC(=O)[C@@H]1CSSC[C@H](NC(=O)[C@@H](N)CCCCN)C(=O)N[C@@H](CC(N)=O)C(=O)N[C@@H]([C@@H](C)O)C(=O)N[C@@H](C)C(=O)N[C@@H]([C@@H](C)O)C(=O)N1)[C@@H](C)O)C(C)C)C(=O)N[C@@H](Cc1ccc(O)cc1)C(=O)N[C@@H](CCC(N)=O)C(=O)N[C@@H](Cc1ccccc1)C(=O)N[C@H](C(=O)N[C@@H](CC(=O)O)C(=O)N[C@@H](CCCCN)C(=O)N[C@@H](CC(=O)O)C(=O)N[C@@H](CCCCN)C(=O)N[C@@H](C)C(=O)N[C@@H](CC(N)=O)C(=O)N[C@H](C(=O)N[C@@H](C)C(=O)N1CCC[C@H]1C(=O)N1CCC[C@H]1C(=O)N[C@H](C(=O)N[C@@H](CC(N)=O)C(=O)N[C@H](C(=O)NCC(=O)N[C@@H](CO)C(=O)N[C@@H](CC(N)=O)C(=O)NCC(=O)N1C[C@H](O)C[C@H]1C(N)=O)C(C)C)[C@@H](C)O)C(C)C)[C@@H](C)O` [compound 314] (H-KCNTATCTVQWLAHQIYQFTDKDKANVAPPTNVGSNG[Hyp]-NH2; disulfide 2-7; N-terminus assumed): in data set [1], the “Max ThT signal (%)” value turned out to be 11.900%. Besides, the EC50 was 0.008 nM on hAMY3 receptor and more than 5000 nM at hAM1 receptor.
`CC[C@H](C)[C@H](NC(=O)[C@H](CCC(N)=O)NC(=O)[C@H](Cc1c[nH]cn1)NC(=O)[C@H](C)NC(=O)[C@H](CC(C)C)NC(=O)[C@H](Cc1c[nH]c2ccccc12)NC(=O)[C@H](CCC(N)=O)NC(=O)[C@@H](NC(=O)[C@@H](NC(=O)[C@@H]1CSSC[C@H](NC(=O)[C@@H](N)CCCCN)C(=O)N[C@@H](CC(N)=O)C(=O)N[C@@H]([C@@H](C)O)C(=O)N[C@@H](C)C(=O)N[C@@H]([C@@H](C)O)C(=O)N1)[C@@H](C)O)C(C)C)C(=O)N[C@@H](Cc1ccc(O)cc1)C(=O)N[C@@H](CCC(N)=O)C(=O)N[C@@H](Cc1ccccc1)C(=O)N[C@@H](C)C(=O)N[C@@H](CC(=O)O)C(=O)N[C@@H](CCCCN)C(=O)N[C@@H](CC(=O)O)C(=O)N[C@@H](CCCCN)C(=O)N[C@@H](CC(=O)O)C(=O)N[C@@H](CC(N)=O)C(=O)N[C@H](C(=O)N[C@@H](C)C(=O)N1CCC[C@H]1C(=O)N1CCC[C@H]1C(=O)N[C@H](C(=O)N[C@@H](CC(N)=O)C(=O)N[C@H](C(=O)NCC(=O)N[C@@H](CO)C(=O)N[C@@H](CC(N)=O)C(=O)NCC(=O)N1C[C@H](O)C[C@H]1C(N)=O)C(C)C)[C@@H](C)O)C(C)C` [compound 313] (H-KCNTATCTVQWLAHQIYQFADKDKDNVAPPTNVGSNG[Hyp]-NH2; disulfide 2-7; N-terminus assumed): the “Max ThT signal (%)” value in data set [1] worked out at 15.050%. The EC50 was 0.004 nM at hAMY3 receptor and more than 5000 nM on hAM1 receptor.
The matching figures for `CC[C@H](C)[C@H](NC(=O)[C@H](CCC(N)=O)NC(=O)[C@H](Cc1c[nH]cn1)NC(=O)[C@H](C)NC(=O)[C@H](CC(C)C)NC(=O)[C@H](Cc1c[nH]c2ccccc12)NC(=O)[C@H](CCC(N)=O)NC(=O)[C@@H](NC(=O)[C@@H](NC(=O)[C@@H]1CSSC[C@H](NC(=O)[C@@H](N)CCCCN)C(=O)N[C@@H](CC(N)=O)C(=O)N[C@@H]([C@@H](C)O)C(=O)N[C@@H](C)C(=O)N[C@@H]([C@@H](C)O)C(=O)N1)[C@@H](C)O)C(C)C)C(=O)N[C@@H](Cc1ccc(O)cc1)C(=O)N[C@@H](CCC(N)=O)C(=O)N[C@@H](Cc1ccccc1)C(=O)N[C@H](C(=O)N[C@@H](CC(=O)O)C(=O)N[C@@H](CCCCN)C(=O)N[C@@H](CC(=O)O)C(=O)N[C@@H](CCCCN)C(=O)N[C@@H](CC(=O)O)C(=O)N[C@@H](CC(N)=O)C(=O)N[C@@H](C)C(=O)N[C@@H](C)C(=O)N1CCC[C@H]1C(=O)N1CCC[C@H]1C(=O)N[C@H](C(=O)N[C@@H](CC(N)=O)C(=O)N[C@H](C(=O)NCC(=O)N[C@@H](CO)C(=O)N[C@@H](CC(N)=O)C(=O)NCC(=O)N1C[C@H](O)C[C@H]1C(N)=O)C(C)C)[C@@H](C)O)[C@@H](C)O` [compound 315] (H-KCNTATCTVQWLAHQIYQFTDKDKDNAAPPTNVGSNG[Hyp]-NH2; disulfide 2-7; N-terminus assumed): 17.150%, 0.012 nM and more than 5000 nM.

The values above are taken from patent publication US12139520B2 (priority 2020, dated 2024).
